Values quoted from earlier work, collected in US9101669B2, “Self-assembed conjugate and use thereof” (POSTECH ACADEMY-INDUSTRY FOUNDATION, priority 2012, dated 2015).

Conditions: 1 to 1 host-guest complex, protonated forms, aqueous solution

binding constant	SMILES
up to 10^10 M^−1	NCCCCCCN [DAH, 1,6-diaminohexane]
≤ 10^12 M^−1	NCCCNCCCCNCCCN [SPM, spermine]
